From PMC11477000, “Enantioselective Binding of Proton Pump Inhibitors to Alpha1-Acid Glycoprotein and Human Serum Albumin—A Chromatographic, Spectroscopic, and In Silico Study” (International Journal of Molecular Sciences, 2024)

Assays:
[1] = target: T1, human serum albumin (HSA) (Homo sapiens, UniProt P02768); assay: Displacement chromatography on HSA column with warfarin and ibuprofen as competitors; type: binding; settings: IPA:10 mM pH 7 phosphate buffer 1:99, 25 °C
Experimental: For identification of the binding site of HSA, a displacement chromatography and fluorescence displacement study were performed. In the case of chromatography, to the mobile phase, increasing concentrations of the competitors, warfarin and ibuprofen, that are known to bind to specific binding sites on HSA, Sudlow site I and Sudlow site II, respectively, were added. In the case of the fluorescence displacement study, the fluorescence quenching data of the PPI-HSA system in the presence of warfarin and ibuprofen were investigated.
(Chromatographic parameter: Column temperature: 25 °C,
mobile phase: IPA : 10 mM pH 7 sodium phosphate buffer 1:99, flow rate: 0.7 mL/min, detection

[2] = test system: α1-acid glycoprotein (AGP); assay: HPLC on AGP-based chiral stationary phase (ChromTech Chiral-AGP column); type: binding, human; settings: 10 mM pH 7 phosphate buffer, 25 °C
Experimental: HPLC using a protein-based chiral stationary phase is a fully automated method for obtaining rapid information about the binding of compounds to the respective proteins. Enantioseparation occurs in the case of unequal binding constants of the individual enantiomers to the immobilized proteins, thus allowing enantioselective binding to be characterized even when a racemic mixture was injected. As a preliminary step, the enantiospecific binding was investigated on columns containing AGP and HSA in various alcohol:buffer mixtures. A pH 7 phosphate buffer was employed as the aqueous part of the mobile phase, while for the organic part, three different alcohols were evaluated. […]
(§1) Chromatographic measurements were carried out on two separate HPLC systems. The AGP binding study was performed on a Waters 2695e chromatographic system paired with a Waters 2996 PDA detector, controlled by Empower 3 FR5 (Waters Corp., Milford, MA, USA), while the HSA binding study was performed on an Agilent 1100 HPLC system, consisting of an inline degasser (G1322A), a quaternary pump (G1311A), an automatic injector (G1329A) paired with sample thermostat (G1330A), a column thermostat (G1316A), and a diode array detector (G1315A) with Agilent Chemstation B04.03-SP2 software (Agilent, Bronnwald, Germany). For the binding studies, two protein-based chiral stationary phases were utilized. The chromatographic binding study for AGP was conducted on a ChromTech Chiral-AGP column (150 mm × 4.0 mm; ChromTech Ltd., Congleton, UK), while the binding study for HSA was performed on a Daicel Chiralpak HSA column (50 mm × 4.0 mm; Daicel Corp., Osaka, Japan). The detection wavelength was 210 nm for all measurements. The stock solutions of PPIs were prepared at a concentration of 1 mg/mL in MeOH. Subsequent dilutions were prepared using water. The injected samples were mixed and diluted from the stock solutions. The final concentration for the eutomer was 0.2 mg/mL, and for the distomer, it was 0.1 mg/mL. A volume of 2 μL was injected. To mitigate the instability of PPIs in aqueous solutions, the samples were kept at a temperature of 4 °C.

[3] = target: T1, human serum albumin (HSA); assay: HPLC on HSA-based chiral stationary phase (Daicel Chiralpak HSA column); type: binding; settings: for k1 retention factor (first-eluting enantiomer) / k2 retention factor (second-eluting enantiomer): HSA column, 10 mM pH 7 phosphate buffer, 25 °C
Experimental: HPLC using a protein-based chiral stationary phase is a fully automated method for obtaining rapid information about the binding of compounds to the respective proteins. Enantioseparation occurs in the case of unequal binding constants of the individual enantiomers to the immobilized proteins, thus allowing enantioselective binding to be characterized even when a racemic mixture was injected. As a preliminary step, the enantiospecific binding was investigated on columns containing AGP and HSA in various alcohol:buffer mixtures. A pH 7 phosphate buffer was employed as the aqueous part of the mobile phase, while for the organic part, three different alcohols were evaluated.
In the following step, we investigated the effect of changing some other chromatographic conditions on the protein binding. The pH of the aqueous phase influenced the protonation state of both the analyte and the proteins. It should be noted that the pH tolerance of protein-based columns is narrow due to the possible denaturation of proteins. Taking into account the guidelines of the manufacturer, three different pH values were investigated (pH 6, 6.5, and 7) at a 95:5 (v/v%) buffer:IPA eluents ratio [49]. The buffer was uniformly 10 mM phosphate. […] The effect of different buffer constituents was also evaluated. In addition to phosphate buffer, ammonium acetate, ammonium bicarbonate, and sodium citrate were tested and compared under the same conditions.
as §1

T1 sequence (P02768 25-609): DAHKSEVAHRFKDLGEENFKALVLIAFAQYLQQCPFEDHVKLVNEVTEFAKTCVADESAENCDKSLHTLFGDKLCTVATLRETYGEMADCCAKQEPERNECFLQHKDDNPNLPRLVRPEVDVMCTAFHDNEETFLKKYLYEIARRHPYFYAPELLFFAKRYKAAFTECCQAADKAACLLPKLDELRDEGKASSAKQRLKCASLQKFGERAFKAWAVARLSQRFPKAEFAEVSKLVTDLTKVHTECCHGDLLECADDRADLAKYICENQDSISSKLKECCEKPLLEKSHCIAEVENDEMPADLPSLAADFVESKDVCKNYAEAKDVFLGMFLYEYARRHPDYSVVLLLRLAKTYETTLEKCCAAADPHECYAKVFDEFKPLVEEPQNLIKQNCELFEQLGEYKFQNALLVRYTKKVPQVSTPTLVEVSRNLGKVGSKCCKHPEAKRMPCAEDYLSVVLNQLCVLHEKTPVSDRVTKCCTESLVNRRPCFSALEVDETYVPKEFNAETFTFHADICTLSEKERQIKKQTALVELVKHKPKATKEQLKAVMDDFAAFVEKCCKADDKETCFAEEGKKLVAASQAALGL

With `COc1ccc2[nH]c([S+]([O-])Cc3ncc(C)c(OC)c3C)nc2c1` (centres unmarked) [Omeprazole, omeprazole] the k retention factor ([1]; ibuprofen 0 mM) was 9.53, the k retention factor ([1]; ibuprofen 0.01 mM) was 7.96 and the k retention factor ([1]; ibuprofen 0.05 mM) was 6.31. For the same compound, the k retention factor ([1]; ibuprofen 0.1 mM) was 5.22, the k retention factor ([1]; warfarin 0 mM) was 9.53 and the k retention factor ([1]; warfarin 0.01 mM) was 8.57. The k retention factor ([1]; warfarin 0.05 mM) was 7.71, the k retention factor ([1]; warfarin 0.1 mM) was 6.98 and the “k1 retention factor (first-eluting enantiomer)” value (shortened to “k1 retention factor”) ([2]; 2.5% IPA) was 13.24. For the same compound, the “k2 retention factor (second-eluting enantiomer)” value (shortened to “k2 retention factor”) ([2]; 2.5% IPA) was 16.18, the “k1 retention factor” value ([2]; 5% EtOH) was 12.69 and the “k2 retention factor” value ([2]; 5% EtOH) was 15.14. For the same compound, the “k1 retention factor” value ([2]; 5% IPA) was 5.46, the “k2 retention factor” value ([2]; 5% IPA) was 5.46 and the “k1 retention factor” value ([2]; 5% MeOH) was 25.74. For the same compound, the “k2 retention factor” value ([2]; 5% MeOH) was 37.33, the “k1 retention factor” value ([2]; 7.5% EtOH) was 6.57 and the “k2 retention factor” value ([2]; 7.5% EtOH) was 7.20. For the same compound, the “k1 retention factor” value ([2]; 7.5% IPA) was 2.88, the “k2 retention factor” value ([2]; 7.5% IPA) was 2.88 and the “k1 retention factor” value ([2]; 7.5% MeOH) was 15.56. The “k2 retention factor” value ([2]; 7.5% MeOH) was 21.41, the “k1 retention factor” value ([2]; 10% EtOH) was 4.02 and the “k2 retention factor” value ([2]; 10% EtOH) was 4.02. The “k1 retention factor” value ([2]; 10% IPA) was 1.87, the “k2 retention factor” value ([2]; 10% IPA) was 1.87 and the “k1 retention factor” value ([2]; 10% MeOH) was 9.95. The “k2 retention factor” value ([2]; 10% MeOH) was 13.05, the “k1 retention factor” value ([2]; 12.5% IPA) was 1.33 and the “k2 retention factor” value ([2]; 12.5% IPA) was 1.33. For the same compound, the “k1 retention factor” value ([2]; 15% EtOH) was 1.81, the “k2 retention factor” value ([2]; 15% EtOH) was 1.81 and the “k1 retention factor” value ([2]; 15% IPA) was 1.01. The “k2 retention factor” value ([2]; 15% IPA) was 1.01, the “k1 retention factor” value ([2]; 15% MeOH) was 6.70 and the “k2 retention factor” value ([2]; 15% MeOH) was 8.43. For the same compound, the “k1 retention factor” value ([3]; 1% EtOH) was 9.89, the “k2 retention factor” value ([3]; 1% EtOH) was 9.89 and the “k1 retention factor” value ([3]; 1% IPA) was 9.53. The “k2 retention factor” value ([3]; 1% IPA) was 9.53, the “k1 retention factor” value ([3]; 1% MeOH) was 7.79 and the “k2 retention factor” value ([3]; 1% MeOH) was 7.79. For the same compound, the “k1 retention factor” value ([3]; 2.5% EtOH) was 5.53, the “k2 retention factor” value ([3]; 2.5% EtOH) was 5.53 and the “k1 retention factor” value ([3]; 2.5% IPA) was 8.66. For the same compound, the “k2 retention factor” value ([3]; 2.5% IPA) was 8.66, the “k1 retention factor” value ([3]; 2.5% MeOH) was 6.37 and the “k2 retention factor” value ([3]; 2.5% MeOH) was 6.37. The “k1 retention factor” value ([3]; 5% EtOH) was 3.68, the “k2 retention factor” value ([3]; 5% EtOH) was 3.68 and the “k1 retention factor” value ([3]; 5% IPA) was 4.34. The “k2 retention factor” value ([3]; 5% IPA) was 4.34, the “k1 retention factor” value ([3]; 5% MeOH) was 4.95 and the “k2 retention factor” value ([3]; 5% MeOH) was 4.95. The “k1 retention factor” value ([3]; 7.5% EtOH) was 2.61, the “k2 retention factor” value ([3]; 7.5% EtOH) was 2.61 and the “k1 retention factor” value ([3]; 7.5% IPA) was 2.82. For the same compound, the “k2 retention factor” value ([3]; 7.5% IPA) was 2.82, the “k1 retention factor” value ([3]; 7.5% MeOH) was 3.82 and the “k2 retention factor” value ([3]; 7.5% MeOH) was 3.82. For the same compound, the “k1 retention factor” value ([3]; 10% EtOH) was 1.97, the “k2 retention factor” value ([3]; 10% EtOH) was 1.97 and the “k1 retention factor” value ([3]; 10% IPA) was 2.03. For the same compound, the “k2 retention factor” value ([3]; 10% IPA) was 2.03, the “k1 retention factor” value ([3]; 10% MeOH) was 2.97 and the “k2 retention factor” value ([3]; 10% MeOH) was 2.97. For the same compound, the “k1 retention factor” value ([3]; 12.5% IPA) was 1.50 and the “k2 retention factor” value ([3]; 12.5% IPA) was 1.50.

`Cc1c(OCC(F)(F)F)ccnc1C[S@+]([O-])c1nc2ccccc2[nH]1` [S-lansoprazole] was tested, and the k retention factor ([1]; ibuprofen 0 mM) was 11.17, the k retention factor ([1]; ibuprofen 0.01 mM) was 9.81 and the k retention factor ([1]; ibuprofen 0.05 mM) was 8.51. It also gave a k retention factor ([1]; ibuprofen 0.1 mM) of 7.60, a k retention factor ([1]; warfarin 0 mM) of 11.17 and a k retention factor ([1]; warfarin 0.01 mM) of 9.03. The k retention factor ([1]; warfarin 0.05 mM) was 8.13, the k retention factor ([1]; warfarin 0.1 mM) was 7.44 and the “Affinity to HSA compared to the antipode” value ([3]; based on the elution order of enantiomers on the HSA column) was “higher affinity”.
